# Tests used:
# [1] = tested on: Propionibakterium acnes; test: Suspension test, antimicrobial efficacy (reduction factor of cell count vs control); assay type: cell-based, P. acnes (DSM 1897); settings: after 24h at 37°C, anaerobic medium; cfu(Kontrolle)/cfu(Testsubstanz); A: 0,2 µg/ml TPI 2007; B: 250 µg/ml Decan-1,2-diol; C: 250 µg/ml Decan-1,2-diol + 0,2 µg/ml TPI 2007
# Description: Die antimikrobielle Wirksamkeit der erfindungsgemäßen dermatologischen und/oder kosmetischen Zubereitung gegen Propionibakterium acnes (P. acnes) wurde zum Vergleich mit verschiedenen Formulierungen untersucht.
# Dazu wurde das Bakterium P. acnes (DSM 1897) aus einem nach EN 12353 angelegten Cryoröhrchen auf einer entsprechenden Agarplatte (Cost-Agar) ausgestrichen und bei 37°C 5 Tage unter anaeroben Bedingungen bebrütet.
# Eine Impföse der Bakterien wurde zu 10mL anaerobem Medium gegeben und im Impedanzgerät mit dem Programm PR37NT unter anaeroben Bedingungen inkubiert. Anschließend wurde diese Bakteriensuspension auf eine OD (optische Dichte) von 0,3-0,5 eingestellt. Die eingestellte Bakteriensuspension wurde dann 1:10 mit anaerobem Medium verdünnt, um eine Keimzahl von ungefähr 5*10^6 zu gewährleisten. Diese Bakteriensuspension wurde anschließend für den Test eingesetzt.
# Der Suspensionstest wurde per Hand durchgeführt. Hierzu wurden 500µL der zu testenden Wirkstofflösungen bzw. im Falle der Kontrollen 500 µl anaerobem Medium in Mikroreaktionsgefäßen vorgelegt. Anschließend wurden 500 µl der Bakteriensuspension hinzugegeben und gemischt. Zum Zeitpunkt t0 wurde eine Probe aus den Kontrollen entnommen. Die Mikroreaktionsgefäße wurden nun im Thermoschüttler bei 37 °C inkubiert. […]
# [2] = tested on: Propionibakterium acnes; settings: 0,2% Decan-1,2-diol alone; cited from earlier work
structure (smiles),measurement,setting,value
"CCCCCCCCC(O)CO (centres unmarked) [Probe B, Decan-1,2-diol]",Reduktionsfaktor,[1],1
same,antibakterielle Wirkung im Suspensionstest,[2],so gut wie keine antibakterielle Wirkung

# Source: patent publication EP3236920B1, “ANTIMICROBIAL PREPARATION COMPRISING BISPYRIDINIUM ALKANES, 1- OR 2-(C1 TO C24 ALKYL) GLYCEROL ETHER AND ALKANE-1,2-DIOLS” (Beiersdorf AG, priority 2014, dated 2016)
